Test results taken from ChEMBL document CHEMBL1125501, “Probes for narcotic receptor mediated phenomena. 18. Epimeric 6 alpha- and 6 beta-iodo-3,14-dihydroxy-17-(cyclopropylmethyl)-4,5 alpha-epoxymorphinans as potential ligands for opioid receptor single photon emission computed tomography: synthesis, evaluation, and radiochemistry of [125I]-6 …” (J Med Chem, 1992).

What was measured:
[1] = target: T1, Delta-type opioid receptor (Rattus norvegicus, UniProt P33533); assay: In vito concentration required to displace [3H]DADLE (Kd = 12.2 nM and concentration is 2.1 nM) from low affinity delta-site in rat brain membranes.; assay type: cell membranes
[2] = target: T2, Kappa-type opioid receptor (Cavia porcellus, UniProt P41144); assay: In vito concentration required to displace [3H]BRM (Kd = 1.0 nM and concentration is 1.8 nM) from opioid receptor kappa 2 in guinea brain membranes.; assay type: cell membranes
[3] = target: T1, Delta-type opioid receptor; assay: In vito concentration required to displace [3H]DADLE (Kd = […] and concentration is […]) from high affinity delta-site in rat brain membranes.; assay type: cell membranes
[4] = target: T1, Delta-type opioid receptor; assay: In vito concentration required to displace [3H]-DADLE (Kd = 12.2 nM and concentration is 2.1 nM) from low affinity delta-site in rat brain membranes.; assay type: cell membranes
Mu-type opioid receptor [5] = target: T3, Mu-type opioid receptor (Rattus norvegicus, UniProt P33535); assay type: cell membranes, Brain, Brain membranes
Mu-type opioid receptor [6] = target: T3, Mu-type opioid receptor; assay type: cell membranes, Brain, Brain membranes; remark: listed apart in the source
[7] = target: T2, Kappa-type opioid receptor; assay: In vito concentration required to displace 9 (Kd = […] and concentration is 1.8 nM) from opioid receptor kappa 2 in guinea brain membranes.; assay type: cell membranes
[8] = target: T2, Kappa-type opioid receptor; assay: In vito concentration required to displace [3H]-BRM (Kd = 1.0 nM and concentration is 1.8 nM) from opioid receptor kappa 2 in guinea brain membranes.; assay type: cell membranes
Mu-type opioid receptor [9] = target: T3, Mu-type opioid receptor; assay: In vito concentration required to displace [3H]DAGO (Kd = 0.7 nM and concentration is […]) from opioid receptor mu in rat brain membranes.; assay type: cell membranes
[10] = target: T2, Kappa-type opioid receptor; assay: In vito concentration required to displace 9 (Kd = […] and concentration is 1.8 nM) from opioid receptor kappa 1 in guinea brain membranes.; assay type: cell membranes

T1 sequence (P33533 whole entry): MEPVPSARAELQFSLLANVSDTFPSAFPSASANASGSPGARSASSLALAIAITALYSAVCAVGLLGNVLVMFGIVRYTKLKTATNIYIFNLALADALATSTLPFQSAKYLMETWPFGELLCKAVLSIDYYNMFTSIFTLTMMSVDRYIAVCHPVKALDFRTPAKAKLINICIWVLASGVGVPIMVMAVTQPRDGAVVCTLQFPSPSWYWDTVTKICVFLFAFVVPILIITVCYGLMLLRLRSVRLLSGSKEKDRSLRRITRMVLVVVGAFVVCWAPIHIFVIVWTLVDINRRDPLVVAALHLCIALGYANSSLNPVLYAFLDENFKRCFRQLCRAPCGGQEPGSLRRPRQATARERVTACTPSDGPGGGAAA
T2 sequence (P41144 whole entry): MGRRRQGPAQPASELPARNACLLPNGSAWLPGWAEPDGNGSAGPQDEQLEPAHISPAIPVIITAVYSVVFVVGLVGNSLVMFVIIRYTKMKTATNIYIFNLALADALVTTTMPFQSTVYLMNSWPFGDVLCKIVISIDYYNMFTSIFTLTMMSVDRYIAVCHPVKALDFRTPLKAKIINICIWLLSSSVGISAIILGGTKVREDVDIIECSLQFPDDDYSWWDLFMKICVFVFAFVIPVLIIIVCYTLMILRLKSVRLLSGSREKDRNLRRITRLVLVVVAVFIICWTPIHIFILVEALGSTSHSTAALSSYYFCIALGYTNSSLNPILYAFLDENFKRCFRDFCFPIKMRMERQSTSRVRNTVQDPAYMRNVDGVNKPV
T3 sequence (P33535 whole entry): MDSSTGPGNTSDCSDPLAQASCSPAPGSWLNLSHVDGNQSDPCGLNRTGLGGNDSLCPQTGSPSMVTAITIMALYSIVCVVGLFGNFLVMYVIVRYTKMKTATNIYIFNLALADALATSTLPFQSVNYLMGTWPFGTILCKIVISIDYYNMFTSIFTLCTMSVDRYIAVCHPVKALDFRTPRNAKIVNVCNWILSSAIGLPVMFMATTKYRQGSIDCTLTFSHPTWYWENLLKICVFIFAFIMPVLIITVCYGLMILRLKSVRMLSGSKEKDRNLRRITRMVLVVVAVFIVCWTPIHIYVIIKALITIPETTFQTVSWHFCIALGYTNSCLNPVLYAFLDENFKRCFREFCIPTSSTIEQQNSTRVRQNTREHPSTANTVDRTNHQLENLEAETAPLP

SMILES	Ki [1] [nM]	IC50 [2] [nM]	IC50 [3] [nM]	IC50 [4] [nM]	IC50 (Mu-type opioid receptor [5]) [nM]	Ki (Mu-type opioid receptor [6]) [nM]	Ki [7] [nM]	Ki [8] [nM]	Ki [3] [nM]	IC50 (Mu-type opioid receptor [9]) [nM]	Ki (Mu-type opioid receptor [9]) [nM]	Ki [10] [nM]	IC50 [10] [nM]
Oc1ccc2c3c1O[C@H]1[C@H](I)CC[C@@]4(O)[C@@H](C2)N(CC2CC2)CC[C@]314	2.25	7.65	25.6	2.64	0.77	0.29	2.73	–	–	–	–	–	–
Oc1ccc2c3c1O[C@H]1[C@@H](I)CC[C@@]4(O)[C@@H](C2)N(CC2CC2)CC[C@]314	6.88	23.7	–	8.06	4.34	1.65	–	8.46	–	–	–	–	–
Oc1ccc2c3c1O[C@H]1[C@H](F)CC[C@@]4(O)[C@@H](C2)N(CC2CC2)CC[C@]314	13.8	66	268	16.2	8.98	3.42	–	–	122	11.4	3.32	3.71	–
Oc1ccc2c3c1O[C@H]1[C@@H](Br)CC[C@@]4(O)[C@@H](C2)N(CC2CC2)CC[C@]314	4.92	20.2	4.3	5.77	3.14	1.19	–	7.21	1.96	4.21	1.23	0.32	0.7
